According to ChEMBL document CHEMBL1201862, “PubChem BioAssay data set” (2004):
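Assay format: 96-well plates, 48-hour exposure. The concentration for 50% growth inhibition is given as GI50.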 Activity calls are given as the source filed them. Cut-off read from the data, not from the text of the source: active = GI50 up to about 1.1 µM and inactive = higher.

Tests used:
Assay in all cases: NCI anticancer screen, dose series, 48 h
[1] = system: OVCAR-5
[2] = system: COLO 205
[3] = system: HT-29
[4] = system: UACC-62
[5] = system: MDA-N
[6] = system: SK-MEL-28
[7] = system: SR
[8] = system: OVCAR-3
[9] = system: LOX IMVI
[10] = system: U-251
[11] = system: MDA-MB-231
[12] = system: HOP-92
[13] = system: NCI-H226
[14] = system: SF-295
[15] = system: SN12C
[16] = system: NCI-H23
[17] = system: SK-OV-3
[18] = system: SNB-75
[19] = system: CAKI-1
[20] = system: UACC-257
[21] = system: TK-10
[22] = system: UO-31
[23] = system: DU-145
[24] = system: HL-60
[25] = system: MCF7
[26] = system: MDA-MB-435
[27] = system: T47D
[28] = system: A498
[29] = system: M14
[30] = system: NCI-H460
[31] = system: OVCAR-8
[32] = system: HCT-116
[33] = system: ACHN
[34] = system: CCRF-CEM
[35] = system: MOLT-4
[36] = system: SNB-19
[37] = system: BT-549
[38] = system: KM12
[39] = system: SK-MEL-5
[40] = system: SW-620
[41] = system: SF-539
[42] = system: NCI/ADR-RES
[43] = system: K562
[44] = system: HOP-62
[45] = system: SF-268
[46] = system: RPMI-8226
[47] = system: EKVX
[48] = system: PC-3
[49] = system: A549
[50] = system: IGROV-1
[51] = system: SK-MEL-2
[52] = system: Hs-578T
[53] = system: 786-0
[54] = system: HCT-15
[55] = system: RXF 393
[56] = system: OVCAR-4
[57] = system: HCC 2998
[58] = system: NCI-H522
[59] = system: Malme-3M

CCOC(=O)/C(C#N)=N\Nc1ccc(-n2c(C)nc3ccc(Br)cc3c2=O)cc1
GI50 [1]: > 100 µM (inactive) | GI50 [2]: 58.3 µM (inactive) | GI50 [3]: 69.5 µM (inactive) | GI50 [4]: 85.5 µM (inactive) | GI50 [5]: > 100 µM (inactive) | GI50 [6]: 98.2 µM (inactive) | GI50 [7]: 19.7 µM (inactive) | GI50 [8]: 52.7 µM (inactive) | GI50 [9]: 36.1 µM (inactive) | GI50 [10]: 91.2 µM (inactive) | GI50 [11]: > 100 µM (inactive) | GI50 [12]: > 100 µM (inactive) | GI50 [13]: 79.8 µM (inactive) | GI50 [14]: 64.7 µM (inactive) | GI50 [15]: 63.8 µM (inactive) | GI50 [16]: > 100 µM (inactive) | GI50 [17]: > 100 µM (inactive) | GI50 [18]: 55.1 µM (inactive) | GI50 [19]: > 100 µM (inactive) | GI50 [20]: > 100 µM (inactive) | GI50 [21]: > 100 µM (inactive) | GI50 [22]: 30.5 µM (inactive) | GI50 [23]: 57.4 µM (inactive) | GI50 [24]: 21.9 µM (inactive) | GI50 [25]: 72.1 µM (inactive) | GI50 [26]: 84.1 µM (inactive) | GI50 [27]: 34.2 µM (inactive) | GI50 [28]: > 100 µM (inactive) | GI50 [29]: 69.5 µM (inactive) | GI50 [30]: 44.7 µM (inactive) | GI50 [31]: 68.1 µM (inactive) | GI50 [32]: 42.2 µM (inactive) | GI50 [33]: > 100 µM (inactive) | GI50 [34]: 33.2 µM (inactive) | GI50 [35]: 27.4 µM (inactive) | GI50 [36]: 76.6 µM (inactive) | GI50 [37]: 88.7 µM (inactive) | GI50 [38]: 40.3 µM (inactive) | GI50 [39]: 25.6 µM (inactive) | GI50 [40]: 90.6 µM (inactive) | GI50 [41]: 87.9 µM (inactive) | GI50 [42]: 62.4 µM (inactive) | GI50 [43]: 35.6 µM (inactive) | GI50 [44]: 91.6 µM (inactive) | GI50 [45]: 68.5 µM (inactive) | GI50 [46]: 30.3 µM (inactive) | GI50 [47]: 87.1 µM (inactive) | GI50 [48]: 63.8 µM (inactive) | GI50 [49]: 50.2 µM (inactive) | GI50 [50]: 41.9 µM (inactive) | GI50 [51]: > 100 µM (inactive) | GI50 [52]: 51.3 µM (inactive) | GI50 [53]: 83.9 µM (inactive) | GI50 [54]: 47.9 µM

COC(=O)n1c(=O)n(-c2ccccc2)c(=O)n1C(=O)OC
GI50 [1]: > 100 µM (inactive) | GI50 [2]: > 100 µM (inactive) | GI50 [3]: > 100 µM (inactive) | GI50 [4]: > 100 µM (inactive) | GI50 [5]: > 100 µM (inactive) | GI50 [6]: > 100 µM (inactive) | GI50 [7]: > 100 µM (inactive) | GI50 [8]: > 100 µM (inactive) | GI50 [9]: > 100 µM (inactive) | GI50 [10]: > 100 µM (inactive) | GI50 [11]: > 100 µM (inactive) | GI50 [13]: > 100 µM (inactive) | GI50 [15]: > 100 µM (inactive) | GI50 [16]: > 100 µM (inactive) | GI50 [17]: > 100 µM (inactive) | GI50 [55]: > 100 µM (inactive) | GI50 [18]: 51.2 µM (inactive) | GI50 [19]: > 100 µM (inactive) | GI50 [20]: > 100 µM (inactive) | GI50 [56]: > 100 µM (inactive) | GI50 [57]: > 100 µM (inactive) | GI50 [21]: > 100 µM (inactive) | GI50 [22]: > 100 µM (inactive) | GI50 [23]: > 100 µM (inactive) | GI50 [24]: > 100 µM (inactive) | GI50 [25]: > 100 µM (inactive) | GI50 [26]: > 100 µM (inactive) | GI50 [27]: > 100 µM (inactive) | GI50 [58]: > 100 µM (inactive) | GI50 [28]: > 100 µM (inactive) | GI50 [29]: > 100 µM (inactive) | GI50 [30]: > 100 µM (inactive) | GI50 [31]: > 100 µM (inactive) | GI50 [32]: > 100 µM (inactive) | GI50 [34]: > 100 µM (inactive) | GI50 [35]: > 100 µM (inactive) | GI50 [36]: > 100 µM (inactive) | GI50 [37]: > 100 µM (inactive) | GI50 [38]: > 100 µM (inactive) | GI50 [39]: > 100 µM (inactive) | GI50 [40]: > 100 µM (inactive) | GI50 [41]: > 100 µM (inactive) | GI50 [42]: > 100 µM (inactive) | GI50 [43]: > 100 µM (inactive) | GI50 [45]: > 100 µM (inactive) | GI50 [46]: > 100 µM (inactive) | GI50 [47]: > 100 µM (inactive) | GI50 [48]: > 100 µM (inactive) | GI50 [49]: > 100 µM (inactive) | GI50 [50]: > 100 µM (inactive) | GI50 [51]: > 100 µM (inactive) | GI50 [59]: > 100 µM (inactive) | GI50 [52]: > 100 µM (inactive) | GI50 [53]: > 100 µM (inactive) | GI50 [54]: > 100 µM
